This assay relates to Escherichia coli ATCC 25922. Nature of the assay: Broth microdilution antimicrobial susceptibility testing (MIC/MBC). Type of assay: cell-based. The note with it: one maximum and one minimum data point dropped; for MIC, E. coli ATCC 25922: broth microdilution (CLSI, adapted for cationic AMPs), Mueller‐Hinton Broth, 5 ± 3 × 10^5 CFU/mL, 20–24 h at 37°C, test range 128 down to 0.25 μg/mL, lowest effective concentration range in three independent experiments in duplicate; for MBC, E. coli ATCC 25922: concentration killing 99.9% of the inoculum, plated from MIC wells, 24 h at 37°C, range in three independent experiments in duplicate. How it is done: Bacteria from frozen stocks were streaked onto non‐selective Columbia blood agar with 5% sheep blood (Oxoid) and incubated for 18–24 h at 37°C. The following day, 2–4 colonies were streaked onto a new agar plate and incubated for 18–24 h at 37°C to ensure uniform colony health prior to the assay. A standardized bacterial inoculum was prepared by suspending isolated colonies in Mueller‐Hinton Broth (MHB; Sigma‐Aldrich, St. Louis, MO, USA). The suspension was adjusted to an optical density of 0.08–0.1 at 600 nm, equivalent to a 0.5 McFarland standard of approximately 1–2 × 10^8 CFU/mL (CFU: colony forming units). The inoculum was then diluted 1:250 to achieve a final concentration of 5 ± 3 × 10^5 CFU/mL. The target bacterial density was confirmed by examining the total viability counts from the final inoculum.
Candidate AMPs were purchased from and synthesized by GenScript (Piscataway, NJ, USA). These were received in lyophilized format and stored at −20°C, and were suspended in sterile ultrapure water prior to testing.
(Broth dilution looks for growth in wells or tubes with falling amounts of substance.)

Turning to FLPKIAGKAAKKLPKIFCKITKKC [DeNo1019], the “MIC, E. coli ATCC 25922” value is 16 µg/mL and the “MBC, E. coli ATCC 25922” value was 16 µg/mL.
Regarding MLPSIAGAAAKGLPKLFCKITKKC [DeNo1038], the “MIC, E. coli ATCC 25922” value was found to be 64 µg/mL and the “MBC, E. coli ATCC 25922” value fell in the range of 64 to 128 µg/mL.
For FLPKIFKKIAKKL [DeNo1045] the same measures were 64 µg/mL and 64 to 128 µg/mL.
For KIFGKILKKLLKKLLKKLLKKL [DeNo1013] the same measures were 16 µg/mL and 16 to 32 µg/mL.
The corresponding values for “TLPDVAKNVAKNVAKTVLDTLKCKITGKC [DeNo1020]” are 64 to 128 µg/mL and 64 to 128 µg/mL.
Consider KLPSIIKAAAKALPKLF [DeNo1034], for which the “MIC, E. coli ATCC 25922” value lay within 16 to 32 µg/mL and the “MBC, E. coli ATCC 25922” value fell in the range of 16 to 64 µg/mL.
For RLPSIIPGIAGKLGGLLGGLLKGL [DeNo1027] the same measures were 32 µg/mL and 32 to 64 µg/mL.
